{"source": "patent US4189604A", "about": "“Bestatin” (Zaidan Hojin Biseibutsu Kagaku Kenkyu Kai, priority 1975, dated 1980)", "key": {"[1]": {"system": "plaque forming cells in the spleen", "assay": "Effect on humoral antibody formation to Sheep Red Blood Cell (SRBC) in mice (JERNE's hemolytic plaque technique)", "assay_type": "in vivo, Mice (dd/y female)", "conditions": "for Antibody Forming Cells Number / Antibody Forming Cells Treated Group / Non-treated Group: intraperitoneal, four days", "method": "The compound of Example 28 was also tested for its humoral antibody formation to find its efficacy as an immunizing cancer inhibitor. […] For the humoral antibody formation of Bestatin per se see J. Antibiotics, 29(8), 857-859 (August, 1976).\nThe effect of (2RS,3RS)-3-amino-2-hydroxy-4-hydroxyphenylbutanoyl-(S)-leucine on humoral antibody formation to Sheep Red Blood Cell (SRBC) in mice was studied as follows.\nMice (dd/y female) were immunized by intravenous injection of 10^8 SRBC. Intraperitoneal injection of (2RS,3RS)-3-amino-2-hydroxy-4-hydroxyphenylbutanoyl-(S)-leucine was made soon afterwards.\nFour days thereafter the number of plaque forming cells in the spleen were enumerated by JERNE's hemolytic plaque technique [Jerne, N. K.; A. A. Nordin & C. Henry: \"The Agar Plaque Technique for Recognizing Antibody-producing Cells\" in cell-bound antibodies (Wistar Institute Press, Philadelphia, 1963), pp. 109-122]."}, "[2]": {"target": "T1, aminopeptidase B (Rattus norvegicus, UniProt O09175)", "T1 construct": "aminopeptidase B solution which is prepared by Sephadex 100 chromatography as described by Hopusu et al; from tissue", "T1 sequence (O09175 1-650)": "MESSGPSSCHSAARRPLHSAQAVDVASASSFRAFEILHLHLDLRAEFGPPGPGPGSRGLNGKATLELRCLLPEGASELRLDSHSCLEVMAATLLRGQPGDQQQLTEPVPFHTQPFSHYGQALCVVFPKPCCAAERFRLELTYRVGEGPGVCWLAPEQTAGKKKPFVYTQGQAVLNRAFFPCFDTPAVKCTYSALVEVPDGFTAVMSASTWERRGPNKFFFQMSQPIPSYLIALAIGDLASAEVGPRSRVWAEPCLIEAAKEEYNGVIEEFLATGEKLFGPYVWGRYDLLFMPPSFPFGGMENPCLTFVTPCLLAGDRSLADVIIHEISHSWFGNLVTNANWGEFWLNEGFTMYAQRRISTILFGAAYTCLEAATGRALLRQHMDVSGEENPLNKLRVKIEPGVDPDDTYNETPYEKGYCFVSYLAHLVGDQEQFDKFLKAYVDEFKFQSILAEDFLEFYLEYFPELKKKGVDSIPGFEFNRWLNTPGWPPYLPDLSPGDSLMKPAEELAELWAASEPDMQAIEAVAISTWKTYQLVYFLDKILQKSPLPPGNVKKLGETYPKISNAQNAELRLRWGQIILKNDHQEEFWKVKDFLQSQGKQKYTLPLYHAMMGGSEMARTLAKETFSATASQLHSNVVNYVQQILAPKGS", "assay": "Inhibitory activity against aminopeptidase B", "assay_type": "biochemical", "conditions": "for IC50: read-out: ID50 (the source's name) (converted); for inhibitory effect relative to Bestatin: compared with Bestatin", "method": "(A) Inhibitory activity against aminopeptidase B Testing method: The method described by […] in Archives of Biochemistry and Biophysics 114, 557, (1966) was modfied. To the mixture of 0.3 ml. of 1 mM arginine β-naphthylamide and 1.0 Ml. of 0.1 M Tris hydrochloride buffer (pH 7.0), 0.7 Ml. of distilled water with or without a test material is added and warmed at 37° C. for 3 minutes. The reaction is started by addition of 0.2 ml. of aminopeptidase B solution which is prepared by Sephadex 100 chromatography as described by Hopusu et al. […] Fifteen minutes at room temperature thereafter, absorbance (a) at 530 nm is measured by spectrophotometer. […] The inhibition percent is calculated as follows: (b-a)/b×100."}, "[3]": {"conditions": "Biological Testing table after Example 29"}, "[4]": {"conditions": "pH 7.0, 37° C., 30 minutes, Table 1"}}, "note": "Where two headings read alike, the source gives them in different places."}
{"smiles": "CC(C)C[C@H](NC(=O)C(O)C(N)Cc1ccc(O)cc1)C(=O)O", "note": "(stereo partly drawn) [Example 28, (2RS,3RS)-3-amino-2-hydroxy-4-p-hydroxyphenylbutanoyl-(S)-leucine]", "values": [{"measurement": "number of antibody forming cells relative to non-treated mice", "setting": "[1]; 1 mcg.", "result": 1.41, "unit": "times"}, {"measurement": "number of antibody forming cells relative to non-treated mice", "setting": "[1]; 10 mcg.", "result": 1.66, "unit": "times"}, {"measurement": "Antibody Forming Cells Number", "setting": "[1]; dose 1 mg.", "result": "207,400±8,025"}, {"measurement": "Antibody Forming Cells Treated Group / Non-treated Group", "setting": "[1]; dose 1 mg.", "result": 1.66}, {"measurement": "Antibody Forming Cells Number", "setting": "[1]; dose 0.1 mcg.", "result": "141,000±5,700"}, {"measurement": "Antibody Forming Cells Treated Group / Non-treated Group", "setting": "[1]; dose 0.1 mcg.", "result": 1.13}, {"measurement": "Antibody Forming Cells Number", "setting": "[1]; dose 1 mcg.", "result": "175,800±8,200"}, {"measurement": "Antibody Forming Cells Treated Group / Non-treated Group", "setting": "[1]; dose 1 mcg.", "result": 1.41}, {"measurement": "Antibody Forming Cells Number", "setting": "[1]; dose 10 mcg.", "result": "208,000±7,180"}, {"measurement": "Antibody Forming Cells Treated Group / Non-treated Group", "setting": "[1]; dose 10 mcg.", "result": 1.66}, {"measurement": "Antibody Forming Cells Number", "setting": "[1]; dose 100 mcg.", "result": "261,000±11,700"}, {"measurement": "Antibody Forming Cells Treated Group / Non-treated Group", "setting": "[1]; dose 100 mcg.", "result": 2.09}, {"measurement": "number of humoral antibody (forming) cells", "setting": "[1]; in words", "result": "increasing the number of humoral antibody cells to a considerable degree"}, {"measurement": "number of nonspecific antibody forming cells", "setting": "[1]; in words", "result": "did not increase the weight of the spleen or the number of nonspecific antibody forming cells"}, {"measurement": "weight of the spleen", "setting": "[1]; in words", "result": "did not increase the weight of the spleen"}, {"measurement": "number of humoral antibody (forming) cells", "setting": "[1]; in words, listed as (2RS,3RS)-3-amino-2-hydroxy-4-hydroxybutanoyl-(S)-leucine", "result": "excellent effect of increasing the number of antibody forming cells"}, {"measurement": "IC50", "setting": "[2]; [3]", "result": 308, "unit": "nM"}, {"measurement": "inhibitory effect relative to Bestatin", "setting": "[2]", "result": "substantially the same inhibitory effects as Bestatin"}]}
{"smiles": "CC(C)C[C@H](NC(=O)[C@@H](O)[C@H](N)Cc1ccc(O)cc1)C(=O)O", "note": "[Example 29, (2S,3R)-3-amino-2-hydroxy-4-p-hydroxyphenylbutanoyl-(S)-leucine]", "values": [{"measurement": "IC50", "setting": "[2]; [3]", "result": 21.6, "unit": "nM"}, {"measurement": "inhibitory effect relative to Bestatin", "setting": "[2]", "result": "one-fourteenth of Bestatin"}]}
{"smiles": "CC(C)C[C@H](NC(=O)[C@@H](O)[C@@H](N)Cc1ccccc1)C(=O)O", "note": "[No. 2, (2S,3S)-3-amino-2-hydroxy-4-phenylbutanoyl-(S)-leucine]", "values": [{"measurement": "ID50", "setting": "[2]; [4]", "result": 1.25, "unit": "µg/mL"}]}
{"smiles": "CC(C)C[C@@H](NC(=O)[C@@H](O)[C@H](N)Cc1ccccc1)C(=O)O", "note": "[No. 3, (2S,3R)-3-amino-2-hydroxy-4-phenylbutanoyl-(R)-leucine]", "values": [{"measurement": "ID50", "setting": "[2]; [4]", "result": 0.56, "unit": "µg/mL"}]}
{"smiles": "CC(C)C[C@@H](NC(=O)[C@@H](O)[C@@H](N)Cc1ccccc1)C(=O)O", "note": "[No. 4, (2S,3S)-3-amino-2-hydroxy-4-phenylbutanoyl-(R)-leucine]", "values": [{"measurement": "IC50", "setting": "[2]; [4]", "result": 130, "unit": "nM"}]}
{"smiles": "N[C@H](Cc1ccccc1)[C@H](O)C(=O)NCC(=O)O", "note": "[No. 5, (2S,3R)-3-amino-2-hydroxy-4-phenylbutanoyl-glycine]", "values": [{"measurement": "ID50", "setting": "[2]; [4]", "result": 21.5, "unit": "µg/mL"}]}
{"smiles": "CC[C@H](C)[C@H](NC(=O)[C@@H](O)[C@H](N)Cc1ccccc1)C(=O)O", "note": "[No. 7, (2S,3R)-3-amino-2-hydroxy-4-phenylbutanoyl-(S)-isoleucine]", "values": [{"measurement": "IC50", "setting": "[2]; [4]", "result": 162, "unit": "nM"}]}
{"smiles": "CSCC[C@H](NC(=O)[C@@H](O)[C@H](N)Cc1ccccc1)C(=O)O", "note": "[No. 8, (2S,3R)-3-amino-2-hydroxy-4-phenylbutanoyl-(S)-methionine]", "values": [{"measurement": "ID50", "setting": "[2]; [4]", "result": 0.22, "unit": "µg/mL"}]}
{"smiles": "NC(=O)CC[C@H](NC(=O)[C@@H](O)[C@H](N)Cc1ccccc1)C(=O)O", "note": "[No. 9, (2S,3R)-3-amino-2-hydroxy-4-phenylbutanoyl-(S)-glutamine]", "values": [{"measurement": "ID50", "setting": "[2]; [4]", "result": 1.2, "unit": "µg/mL"}]}
{"smiles": "CCCC[C@H](NC(=O)[C@@H](O)[C@H](N)Cc1ccccc1)C(=O)O", "note": "[No. 11, (2S,3R)-3-amino-2-hydroxy-4-phenylbutanoyl-(S)-norleucine]", "values": [{"measurement": "ID50", "setting": "[2]; [4]", "result": 0.13, "unit": "µg/mL"}]}
{"smiles": "N[C@H](Cc1ccccc1)[C@H](O)C(=O)N[C@@H](Cc1ccccc1)C(=O)O", "note": "[No. 12, (2S,3R)-3-amino-2-hydroxy-4-phenylbutanoyl-(S)-phenylalanine]", "values": [{"measurement": "ID50", "setting": "[2]; [4]", "result": 4.2, "unit": "µg/mL"}]}
{"smiles": "N[C@H](Cc1ccccc1)[C@H](O)C(=O)N[C@@H](CO)C(=O)O", "note": "[No. 13, (2S,3R)-3-amino-2-hydroxy-4-phenylbutanoyl-(S)-serine]", "values": [{"measurement": "IC50", "setting": "[2]; [4]", "result": 2550, "unit": "nM"}]}
{"smiles": "N[C@H](Cc1ccccc1)[C@H](O)C(=O)N[C@@H](CCC(=O)O)C(=O)O", "note": "[No. 14, (2S,3R)-3-amino-2-hydroxy-4-phenylbutanoyl-(S)-glutamic acid]", "values": [{"measurement": "ID50", "setting": "[2]; [4]", "result": 25, "unit": "µg/mL"}]}
{"smiles": "CCCCCCC(NC(=O)[C@@H](O)[C@H](N)Cc1ccccc1)C(=O)O", "note": "(stereo partly drawn) [No. 15, (2S,3R)-3-amino-2-hydroxy-4-phenylbutanoyl-(RS)-2-aminooctanoic acid]", "values": [{"measurement": "ID50", "setting": "[2]; [4]", "result": 3.1, "unit": "µg/mL"}]}
{"smiles": "CC(C)C[C@H](NC(=O)C(O)[C@@H](C)N)C(=O)O", "note": "(some centres unmarked) [No. 16]", "values": [{"measurement": "ID50", "setting": "[2]; [4]", "result": 16, "unit": "µg/mL"}]}
{"smiles": "CC(C)C[C@H](NC(=O)C(O)[C@H](N)CC(C)C)C(=O)O", "note": "(stereo partly drawn) [No. 17, (2RS,3R)-30 amino-2-hydroxy-5-methylhexanoyl-(S)-leucine]", "values": [{"measurement": "ID50", "setting": "[2]; [4]", "result": 12, "unit": "µg/mL"}]}
{"smiles": "CC(C)C[C@H](NC(=O)C(O)[C@H](N)c1ccccc1)C(=O)O", "note": "(stereo partly drawn) [No. 18, (2RS,3R)-3-amino-2-hydroxy-3-phenylpropionyl-(S)-leucine]", "values": [{"measurement": "ID50", "setting": "[2]; [4]", "result": 56, "unit": "µg/mL"}]}
{"smiles": "CC(C)C[C@H](NC(=O)C(O)C(N)Cc1ccc(Cl)cc1)C(=O)O", "note": "(stereo partly drawn) [No. 19, (2RS,3RS)-3-amino-2-hydroxy-4-p-chlorophenylbutanoyl-(S)-leucine]", "values": [{"measurement": "number of antibody forming cells compared with non-treated group", "setting": "[1]; 10 mcg., in words", "result": "nearly equal to that of non-treated group"}, {"measurement": "Antibody Forming Cells Number", "setting": "[1]; dose 1 mg.", "result": "208,750±8,000"}, {"measurement": "Antibody Forming Cells Treated Group / Non-treated Group", "setting": "[1]; dose 1 mg.", "result": 1.67}, {"measurement": "Antibody Forming Cells Number", "setting": "[1]; dose 10 mcg.", "result": "133,750±5,600"}, {"measurement": "Antibody Forming Cells Treated Group / Non-treated Group", "setting": "[1]; dose 10 mcg.", "result": 1.07}]}
{"smiles": "Cc1ccc(CC(N)C(O)C(=O)N[C@@H](CC(C)C)C(=O)O)cc1", "note": "(stereo partly drawn) [No. 21, (2RS,3RS)-3-amino-2-hydroxy-4-p-methylphenylbutanoyl-(S)-leucine]", "values": [{"measurement": "ID50", "setting": "[2]; [4]", "result": 0.01, "unit": "µg/mL"}]}
{"smiles": "CC(C)C[C@H](NC(=O)[C@@H](O)[C@H](N)Cc1ccc([N+](=O)[O-])cc1)C(=O)O", "note": "[No. 22, (2S,3R)-3-amino-2-hydroxy-4-p-nitrophenylbutanoyl-(S)-leucine]", "values": [{"measurement": "ID50", "setting": "[2]; [4]", "result": 0.01, "unit": "µg/mL"}]}
{"smiles": "CC(C)C[C@H](NC(=O)[C@@H](O)[C@H](N)Cc1ccc(N)cc1)C(=O)O", "note": "[No. 23, (2S,3R)-3-amino-2-hydroxy-4-p-aminophenylbutanoyl-(S)-leucine]", "values": [{"measurement": "ID50", "setting": "[2]; [4]", "result": 0.10, "unit": "µg/mL"}]}
{"smiles": "CC(C)C[C@H](NC(=O)[C@@H](O)[C@H](N)CC1CCCCC1)C(=O)O", "note": "[No. 24, (2S,3R)-3-amino-2-hydroxy-4-cyclohexylbutanoyl-(S)-leucine]", "values": [{"measurement": "IC50", "setting": "[2]; [4]", "result": 3340, "unit": "nM"}]}
